Experimental data as given in ChEMBL document CHEMBL5223077, “Recent advances on synthesis and biological activities of aurones” (Bioorg Med Chem, 2021).
≈ marks a conversion by molar mass, not a printed value.

Experiments:
[1] = Antioxidant activity assessed as DPPH radical scavenging activity relative to control; format: functional; set-up: concentration or dose not given beside the values
Plasmodium falciparum [2] = assay: Antiplasmodial activity against Plasmodium falciparum D6; format: functional, organism-based
Plasmodium falciparum [3] = assay: Antiplasmodial activity against Plasmodium falciparum W2; format: functional, organism-based
Plasmodium falciparum [4] = assay: Antiplasmodial activity against Plasmodium falciparum 3D7; format: functional, organism-based
[5] = Inhibition of CDK5/p25 (unknown origin); set-up: species or system Homo sapiens
MES-SA = assay: Antiproliferative activity against human MES-SA cells assessed as cell growth inhibition; format: functional, cell-based
MES-SA/Dx5 = assay: Antiproliferative activity against human MES-SA/Dx5 cells assessed as cell growth inhibition; format: functional, cell-based
[6] = target: T1, Nitric oxide synthase, inducible (Mus musculus, UniProt P29477); assay: Inhibition of iNOS expression in LPS-induced mouse RAW264.7 cells; format: cell-based
T1 sequence (P29477 whole entry): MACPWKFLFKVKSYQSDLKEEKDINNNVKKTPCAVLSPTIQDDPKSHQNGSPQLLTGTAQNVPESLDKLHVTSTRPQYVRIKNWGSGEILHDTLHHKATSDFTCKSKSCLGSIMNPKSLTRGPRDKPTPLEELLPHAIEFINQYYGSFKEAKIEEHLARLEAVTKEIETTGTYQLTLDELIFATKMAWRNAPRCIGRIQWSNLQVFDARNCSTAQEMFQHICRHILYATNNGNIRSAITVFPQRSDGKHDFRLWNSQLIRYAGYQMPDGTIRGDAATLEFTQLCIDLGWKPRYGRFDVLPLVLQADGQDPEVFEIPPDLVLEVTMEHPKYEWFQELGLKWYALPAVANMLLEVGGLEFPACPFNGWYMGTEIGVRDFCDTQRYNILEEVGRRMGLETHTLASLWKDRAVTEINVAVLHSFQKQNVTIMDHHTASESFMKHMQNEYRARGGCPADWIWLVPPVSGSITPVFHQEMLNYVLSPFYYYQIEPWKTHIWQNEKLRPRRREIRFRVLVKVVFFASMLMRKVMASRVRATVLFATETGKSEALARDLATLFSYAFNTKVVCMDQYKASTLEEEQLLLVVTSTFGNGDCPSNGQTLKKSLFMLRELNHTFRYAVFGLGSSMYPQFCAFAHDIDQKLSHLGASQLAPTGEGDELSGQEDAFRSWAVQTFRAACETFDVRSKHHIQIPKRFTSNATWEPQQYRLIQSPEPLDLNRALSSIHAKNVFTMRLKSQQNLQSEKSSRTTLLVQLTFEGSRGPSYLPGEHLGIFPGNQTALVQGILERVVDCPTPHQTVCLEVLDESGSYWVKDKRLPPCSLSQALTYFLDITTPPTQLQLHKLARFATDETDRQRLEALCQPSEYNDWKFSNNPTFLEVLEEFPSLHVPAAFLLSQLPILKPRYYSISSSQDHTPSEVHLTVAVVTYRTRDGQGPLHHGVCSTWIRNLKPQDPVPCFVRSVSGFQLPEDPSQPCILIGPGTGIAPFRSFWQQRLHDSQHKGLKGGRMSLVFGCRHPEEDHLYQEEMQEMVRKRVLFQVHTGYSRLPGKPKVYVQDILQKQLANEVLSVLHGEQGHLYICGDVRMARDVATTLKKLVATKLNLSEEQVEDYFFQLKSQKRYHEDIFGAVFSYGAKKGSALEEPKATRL

[7] = tested on: Mycolicibacterium smegmatis; assay: Anti-mycobacterial activity against Mycobacterium smegmatis assessed as inhibition of bacterial growth; format: functional
Staphylococcus aureus = assay: Antimicrobial activity against Staphylococcus aureus assessed as inhibition of bacterial growth; format: functional
Bacillus subtilis = assay: Antimicrobial activity against Bacillus subtilis assessed as inhibition of bacterial growth; format: functional
Fusarium oxysporum = assay: Antifungal activity against Fusarium oxysporum assessed as inhibition of fungal growth; format: functional
HT-29 = assay: Antiproliferative activity against human HT-29 cells assessed as cell growth inhibition; format: functional, cell-based
HL-60 = assay: Antiproliferative activity against human HL-60 cells assessed as cell growth inhibition; format: functional, cell-based
[8] = tested on: Mycobacterium tuberculosis; assay: Antimycobacterial activity against Mycobacterium tuberculosis; format: functional
K562 = assay: Antiproliferative activity against human K562 cells assessed as cell growth inhibition at 10 uM relative to control; format: functional, cell-based
MDA-MB-435 = assay: Antiproliferative activity against human MDA-MB-435 cells assessed as cell growth inhibition at 10 uM relative to control; format: functional, cell-based
Tubulin = assay: Inhibition of tubulin (unknown origin); format: protein-complex assay, Homo sapiens
Candida albicans = assay: Antifungal activity against Candida albicans assessed as inhibition of fungal growth; format: functional
[9] = Antioxidant activity assessed as ABTS radical scavenging activity; format: functional
[10] = Antioxidant activity assessed as DPPH radical scavenging activity; format: functional
Maltase-glucoamylase = Maltase-glucoamylase (Homo sapiens, UniProt O43451); assay: Inhibition of alpha-glucosidase (unknown origin)
Maltase-glucoamylase, sequence (O43451 whole entry): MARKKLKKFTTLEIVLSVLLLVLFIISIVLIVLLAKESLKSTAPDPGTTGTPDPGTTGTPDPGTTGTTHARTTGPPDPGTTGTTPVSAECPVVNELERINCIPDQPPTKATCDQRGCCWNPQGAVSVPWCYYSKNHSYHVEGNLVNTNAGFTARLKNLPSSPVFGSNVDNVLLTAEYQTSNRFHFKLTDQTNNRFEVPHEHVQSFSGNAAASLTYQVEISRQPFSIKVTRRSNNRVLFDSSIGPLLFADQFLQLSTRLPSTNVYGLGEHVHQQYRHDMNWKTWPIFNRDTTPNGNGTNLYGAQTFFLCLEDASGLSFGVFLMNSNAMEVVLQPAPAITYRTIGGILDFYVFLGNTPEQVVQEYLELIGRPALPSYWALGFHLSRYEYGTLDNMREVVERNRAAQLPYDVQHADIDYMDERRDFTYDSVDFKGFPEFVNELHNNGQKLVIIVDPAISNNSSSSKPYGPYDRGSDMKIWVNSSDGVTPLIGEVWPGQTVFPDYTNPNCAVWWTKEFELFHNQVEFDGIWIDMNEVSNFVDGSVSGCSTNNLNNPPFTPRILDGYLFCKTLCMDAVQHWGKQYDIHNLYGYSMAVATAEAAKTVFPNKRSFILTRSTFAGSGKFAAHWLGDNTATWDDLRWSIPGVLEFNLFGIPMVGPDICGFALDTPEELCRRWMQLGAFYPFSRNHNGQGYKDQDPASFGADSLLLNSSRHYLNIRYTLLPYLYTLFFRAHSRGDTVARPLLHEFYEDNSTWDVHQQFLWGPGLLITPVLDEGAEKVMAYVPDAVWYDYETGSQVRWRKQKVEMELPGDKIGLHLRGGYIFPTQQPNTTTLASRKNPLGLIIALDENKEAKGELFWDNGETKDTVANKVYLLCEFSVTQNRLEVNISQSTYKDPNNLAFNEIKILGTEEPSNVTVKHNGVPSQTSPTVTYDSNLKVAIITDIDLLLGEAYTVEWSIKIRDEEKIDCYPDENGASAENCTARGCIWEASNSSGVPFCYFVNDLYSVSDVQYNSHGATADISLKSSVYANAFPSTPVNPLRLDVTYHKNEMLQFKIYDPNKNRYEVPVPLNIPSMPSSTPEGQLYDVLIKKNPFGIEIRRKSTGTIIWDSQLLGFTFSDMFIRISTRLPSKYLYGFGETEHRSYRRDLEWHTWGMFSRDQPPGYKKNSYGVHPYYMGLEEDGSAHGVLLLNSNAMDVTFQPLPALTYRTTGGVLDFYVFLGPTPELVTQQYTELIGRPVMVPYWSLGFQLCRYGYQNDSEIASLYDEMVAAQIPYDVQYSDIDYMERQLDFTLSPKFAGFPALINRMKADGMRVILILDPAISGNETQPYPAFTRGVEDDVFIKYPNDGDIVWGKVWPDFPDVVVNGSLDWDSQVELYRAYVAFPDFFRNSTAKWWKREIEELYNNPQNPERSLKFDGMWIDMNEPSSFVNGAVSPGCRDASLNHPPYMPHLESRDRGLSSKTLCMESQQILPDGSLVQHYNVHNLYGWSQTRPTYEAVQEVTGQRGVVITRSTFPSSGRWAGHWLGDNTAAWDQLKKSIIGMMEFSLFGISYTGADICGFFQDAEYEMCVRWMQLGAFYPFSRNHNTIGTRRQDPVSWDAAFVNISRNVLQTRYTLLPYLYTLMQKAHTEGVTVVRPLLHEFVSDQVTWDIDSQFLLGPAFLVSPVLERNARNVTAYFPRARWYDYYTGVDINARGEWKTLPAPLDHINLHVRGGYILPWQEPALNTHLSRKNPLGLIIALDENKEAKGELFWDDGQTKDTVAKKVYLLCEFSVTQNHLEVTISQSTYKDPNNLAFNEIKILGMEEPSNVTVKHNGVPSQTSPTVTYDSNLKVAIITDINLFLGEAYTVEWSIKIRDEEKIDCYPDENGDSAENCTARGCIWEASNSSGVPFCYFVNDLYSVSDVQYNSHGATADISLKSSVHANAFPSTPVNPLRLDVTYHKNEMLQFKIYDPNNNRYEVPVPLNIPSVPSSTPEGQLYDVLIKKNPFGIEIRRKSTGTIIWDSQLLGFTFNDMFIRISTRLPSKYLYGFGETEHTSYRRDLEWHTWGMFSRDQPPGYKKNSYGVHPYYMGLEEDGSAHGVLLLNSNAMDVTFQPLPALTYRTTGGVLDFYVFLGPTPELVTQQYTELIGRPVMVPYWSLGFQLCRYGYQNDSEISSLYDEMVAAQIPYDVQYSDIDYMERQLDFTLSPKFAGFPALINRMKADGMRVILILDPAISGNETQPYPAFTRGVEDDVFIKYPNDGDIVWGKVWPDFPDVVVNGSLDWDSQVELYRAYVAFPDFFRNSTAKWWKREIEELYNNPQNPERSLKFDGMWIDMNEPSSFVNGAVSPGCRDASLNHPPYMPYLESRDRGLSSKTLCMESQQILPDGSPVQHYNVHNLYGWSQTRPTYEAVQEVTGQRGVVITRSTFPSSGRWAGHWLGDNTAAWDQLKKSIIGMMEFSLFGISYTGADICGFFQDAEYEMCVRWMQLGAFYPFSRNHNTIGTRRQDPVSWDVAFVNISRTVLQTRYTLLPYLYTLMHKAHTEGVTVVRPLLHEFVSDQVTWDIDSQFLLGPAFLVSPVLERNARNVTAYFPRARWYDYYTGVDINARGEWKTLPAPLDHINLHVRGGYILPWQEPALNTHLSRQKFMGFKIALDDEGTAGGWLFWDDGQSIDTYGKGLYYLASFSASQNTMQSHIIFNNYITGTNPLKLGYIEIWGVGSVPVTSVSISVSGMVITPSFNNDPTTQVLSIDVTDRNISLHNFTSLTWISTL

With `COc1c(O)ccc2c1O/C(=C\c1ccc(O)c(O)c1)C2=O` the Activity [1] was 84.2%.

Molecule `COc1cc(OC)c2c(c1)O/C(=C\c1ccc(OC)c(OC)c1)C2=O` [4,6,3',4'-TETRAMETHOXYAURONE] has an IC50 (Plasmodium falciparum [2]) of 13.9 µM, an IC50 (Plasmodium falciparum [3]) of 13.9 µM and an IC50 (Plasmodium falciparum [4]) of 7.82 µM.

Molecule `O=C1/C(=C/c2ccc(O)c(O)c2)Oc2cc(O)cc(O)c21` [AUREUSIDIN] has an IC50 [5] of 4.81 µM.

With `CCCCc1ccc(/C=C2\Nc3cc(OC)cc(OC)c3C2=O)cc1` the IC50 (MES-SA) was 17.8 µM and the IC50 (MES-SA/Dx5) was 3.7 µM.

In the case of `CC1(C)CCc2c(ccc3c2O/C(=C\c2cccc(O)c2)C3=O)O1`, the IC50 [6] is reported as 10.8 µM.

Molecule `O=C1/C(=C/c2cc3ccccc3nc2Cl)Oc2cc(O)cc(O)c21` has an MIC [7] of 625 µg/mL (≈ 1840 µM), an MIC (Staphylococcus aureus) of 1250 µg/mL (≈ 3680 µM) and an MIC (Bacillus subtilis) of 20 µg/mL (≈ 58.9 µM). For the same molecule, the MIC (Fusarium oxysporum) was 625 µg/mL (≈ 1840 µM).

`CCOc1ccc2c(c1)O/C(=C\c1ccc(C(F)(F)F)cc1)C2=O` showed an IC50 (HT-29) of 9.12 µM and an IC50 (HL-60) of 1.65 µM.

Work on `CC(=O)N1/C(=C\c2ccc(-c3cncc4ccccc34)cc2)C(=O)c2ccccc21` yielded an MIC99 [8] of 0.74 µM (≈ 0.289 µg/mL).

Work on `COc1cc(/C=C2\Oc3cc4occc4c(OC)c3C2=O)ccc1OCC(=O)Nc1ccccc1` yielded an inhibition of growth at 10 µM (K562; dose 10 µM, read-out: GI) of 70.3%, an IC50 (MDA-MB-435) of 7.05 µM and an inhibition of growth at 10 µM (MDA-MB-435; dose 10 µM, read-out: GI) of 79.6%.

With `COc1cc2c(c(OC)c1)C(=O)/C(=C/c1ccc(C(C)(C)C)cc1)N2` the IC50 (MES-SA) was 11.9 µM and the IC50 (MES-SA/Dx5) was 3.4 µM.

`CC1(C)CCc2c(ccc3c2O/C(=C\c2ccccc2)C3=O)O1` gave an IC50 [6] of 12.2 µM.

For `CC1(C)CCc2c(ccc3c2O/C(=C\c2ccccn2)C3=O)O1`, the IC50 [6] was 8.41 µM.

Molecule `CCCCCCCOc1ccc2c(c1)O/C(=C\c1ccc(C(F)(F)F)cc1)C2=O` has an IC50 (HT-29) of 4.32 µM and an IC50 (HL-60) of 2.67 µM.

Molecule `O=C1/C(=C/c2ccncc2)Oc2cc(OCc3c(Cl)cccc3Cl)ccc21` has an IC50 (Tubulin) of 66 µM.

Molecule `O=C1/C(=C/c2cc3cc(Br)ccc3nc2Cl)Oc2cc(O)cc(O)c21` has an MIC (Candida albicans) of 78 µg/mL (≈ 186 µM), an MIC (Staphylococcus aureus) of 1250 µg/mL (≈ 2990 µM) and an MIC (Bacillus subtilis) of 313 µg/mL (≈ 748 µM).

`Cc1ccc(/C=C2\Oc3c(ccc4c3CCC(C)(C)O4)C2=O)o1` gave an IC50 [6] of 11.9 µM.

`COc1cc(OC)c(C2=CCN(Cc3ccccc3)CC2)c2c1C(=O)/C(=C/c1ccc(F)cc1)O2` gave an IC50 [9] of 71.7 µM.

`COc1cc2c(c(OC)c1)C(=O)/C(=C/c1c(C)c(C)cc(C)c1C)N2` gave an IC50 (MES-SA) of 9.2 µM and an IC50 (MES-SA/Dx5) of 19.5 µM.

For `COc1cc(OC)c(C2=CCN(Cc3ccccc3)CC2)c2c1C(=O)/C(=C/c1ccc(Br)cc1)O2`, the IC50 [9] was 87 µM.

`O=C1/C(=C/c2ccc(C(F)(F)F)cc2)Oc2cc(O)ccc21` gave an IC50 (HT-29) of 8.9 µM and an IC50 (HL-60) of 1.54 µM.

`COc1cc(/C=C2\Oc3c(ccc(OC)c3OC)C2=O)ccc1O` gave an Activity [1] of 32.8%.

Work on `CC(=O)N1/C(=C\c2ccc(-c3ccsc3)cc2)C(=O)c2ccccc21` yielded an MIC99 [8] of 0.6 µM (≈ 0.207 µg/mL).

With `CCn1cc(/C=C2\Oc3cc(OCC#N)cc(O)c3C2=O)c2cc(OC)ccc21` the IC50 (Tubulin) was 58.6 µM.

In the case of `O=C1c2ccccc2OC1(O)Cc1ccc(Cl)cc1` (centres undefined), the IC50 [10] is reported as 54 µM.

`COc1ccc2c(c1)O/C(=C\c1ccc(C(F)(F)F)cc1)C2=O` gave an IC50 (HT-29) of 5.9 µM and an IC50 (HL-60) of 2.59 µM.

Molecule `COc1cc(/C=C2\Oc3c(ccc(O)c3OC)C2=O)ccc1O` has an Activity [1] of 47.4%.

For `C=CCOc1ccc2c(c1)O/C(=C\c1ccc(C(F)(F)F)cc1)C2=O`, the IC50 (HT-29) was 4.12 µM and the IC50 (HL-60) was 3.53 µM.

Work on `CC1(C)CCc2c(ccc3c2O/C(=C\c2ccc(O)c(O)c2)C3=O)O1` yielded an IC50 [6] of 8.09 µM.

In the case of `Cc1cc(C)c2cc(/C=C3\Oc4cc(O)cc(O)c4C3=O)c(Cl)nc2c1`, the MIC (Candida albicans) is reported as 156 µg/mL (≈ 424 µM), the MIC [7] is reported as 78 µg/mL (≈ 212 µM) and the MIC (Staphylococcus aureus) is reported as 2500 µg/mL (≈ 6800 µM). For the same molecule, the MIC (Bacillus subtilis) was 156 µg/mL (≈ 424 µM) and the MIC (Fusarium oxysporum) was 313 µg/mL (≈ 851 µM).

With `CC(=O)N1/C(=C\c2ccc(Br)cc2)C(=O)c2ccccc21` the MIC99 [8] was 0.37 µM (≈ 0.127 µg/mL).

In the case of `Cc1ccc2cc(/C=C3\Oc4cc(O)cc(O)c4C3=O)c(Cl)nc2c1C`, the MIC (Staphylococcus aureus) is reported as 1250 µg/mL (≈ 3400 µM) and the MIC (Bacillus subtilis) is reported as 625 µg/mL (≈ 1700 µM).

`CCOc1c(Br)cc(/C=C2\Oc3cc(OC)cc(OC)c3C2=O)cc1OC` showed an IC50 (Plasmodium falciparum [4]) of 7.27 µM.

For `COc1cc2c(c(OC)c1)C(=O)/C(=C/c1ccc(C(C)C)cc1)N2`, the IC50 (MES-SA) was 17.1 µM and the IC50 (MES-SA/Dx5) was 5.8 µM.

With `COc1ccc(/C=C2\Oc3c(ccc(OC)c3OC)C2=O)cc1O` the Activity [1] was 8.9%.

For `COc1ccc2c(c1OC)O/C(=C\c1ccc(O)c(O)c1)C2=O`, the Activity [1] was 85.8%.

`CC(C)=CCc1c(O)ccc2c1O/C(=C\c1ccc(O)cc1)C2=O` gave an IC50 (Maltase-glucoamylase) of 73.8 µM.

With `O=C1/C(=C/c2ccc(C(F)(F)F)cc2)Oc2cc(OCc3ccccc3)ccc21` the IC50 (HT-29) was 4.12 µM and the IC50 (HL-60) was 3.46 µM.

In the case of `COc1cc(OC)c2c(c1)O/C(=C\c1ccccc1)C2=O`, the IC50 (Plasmodium falciparum [2]) is reported as 16.9 µM and the IC50 (Plasmodium falciparum [3]) is reported as 16.9 µM.

Work on `C#Cc1cccc(Nc2ncnc3cc(OCCOC)c(OCCOC)cc23)c1` [ERLOTINIB] yielded an IC50 (K562) of 3.29 µM and an IC50 (MDA-MB-435) of 7.05 µM.

Molecule `O=C1/C(=C/c2ccc(Cl)cc2)Oc2ccccc21` has an IC50 [10] of 92 µM.

Molecule `COc1ccc2c(c1)O/C(=C\c1cc(O)ccc1O)C2=O` has an IC50 [10] of 35.9 µM.

With `CCCOc1c(Br)cc(/C=C2\Oc3cc(OC)cc(OC)c3C2=O)cc1OC` the IC50 (Plasmodium falciparum [4]) was 2.3 µM.

`COc1cc(/C=C2\Oc3c(ccc4c3CCC(C)(C)O4)C2=O)ccc1O` gave an IC50 [6] of 5.22 µM.
